This is an account of results in patent US8557998B2, “Benzylpiperizine compound” (Dainippon Sumitomo Pharma Co., Ltd, priority 2008, dated 2013).

Structures are written as SMILES.

Series [1] addresses T1, CYP2D6 (Homo sapiens, UniProt P10635).
T1 construct: Pooled of Human Liver Microsomes was purchased from Xenotech, LLC; tissue Xenotech, LLC; host or cells: pooled human liver microsomes
In words: Screening test of the rate of CYP2D6 contribution in human liver microsomal metabolism. The format is in vitro ADME. Also noted: key to Rate of CYP2D6 Contribution indeterminable due to high stability for human microsomal metabolism: —*^): The rate of CYP2D6 contribution was indeterminable in the present test due to high stability for human microsomal metabolism. The note with it: 1 mg/mL human liver microsomes, 1 μM test substance, 37° C.; for Test Example 4: Rate of CYP2D6 Contribution: with/without quinidine 4 μM. On the procedure:
Screening Test of the Rate of CYP2D6 Contribution in Human Liver Microsomal Metabolism
0.2 mL of a 50 mM potassium phosphate buffer solution (pH 7.4) containing NADPH (final concentration: 3 mM, manufactured by Oriental Yeast Co., Ltd.), 1 mg/mL human liver microsomes (manufactured by XENOTECH, LLC), and a 1 μM test substance was heated on a water bath at 37° C. for metabolic reaction. After the reaction for 15 minutes or 30 minutes, methanol was added in a volume 3 times that of the reaction solution, and the mixture was stirred to terminate the reaction. This reaction solution was centrifuged for protein precipitation. Then, the supernatant was collected and subjected to LC-MS/MS analysis. The results were analyzed as follows:
The test substance was quantified, and time-dependent change in the amount of the substance remaining was logarithmically plotted. A metabolic rate was calculated from the slope.
The ratio of the metabolic rate obtained by the addition of quinidine (final concentration: 4 μM) to the reaction solution to the metabolic rate obtained without the addition was used as the rate of contribution of enzymes other than CYP2D6, and the rate of contribution obtained by subtracting this rate of contribution of other enzymes from the total was used as the rate of CYP2D6 contribution. Specifically, it was calculated according to the equation: Rate of contribution(%)={1−(metabolic rate [with quinidine]/metabolic rate[without quinidine])}×100. A smaller value of the rate of CYP2D6 contribution means smaller CYP2D6 contribution.
Background: Liver microsomes are vesicles of endoplasmic reticulum, rich in cytochrome P450 enzymes.

Series [2] concerns the target T1, CYP2D6. In words: CYP2D6 inhibition screening test. The format is in vitro ADME. The settings on record: pooled human liver microsomes, substrate bufuralol, 37° C. 10 min, 1'-hydroxybufuralol by LC-MSMS; read-out: Test Example 3: CYP2D6 Inhibition IC50. The protocol:
CYP2D6 Inhibition Screening Test
Bufuralol was purchased from Sigma-Aldrich Corp., and Pooled of Human Liver Microsomes was purchased from Xenotech, LLC.
150 μL of Pooled Human Liver Microsomes (20 mg/ml), 12 mL of a 0.5 M potassium phosphate buffer, 1.2 mL of a 165 mM magnesium chloride solution, and 34.65 mL of distilled water were mixed.
Bufuralol was dissolved at a concentration of 2.0 mM in DMSO and then diluted 200-fold with distilled water.
3-3 Experimental Procedures
1. A 10 mM DMSO solution of a test drug was serially diluted 5-fold with DMSO for 4 serial dilutions to prepare 10, 2, 0.4, and 0.08 mM DMSO solutions.
2. Each test drug solution of the step 1. and DMSO were separately diluted 96-fold with a human liver microsome solution, and each dilution was dispensed and 80 μL of each dilution to microplates.
3. 10 μL of a substrate solution and 10 μL of a β-NADPH solution were added to the well of the step 2., followed by incubation at 37° C. for 10 min.
4. The reaction was terminated by the addition of 300 μL of methanol.
5. The reaction mixture was filtered, and LC-MSMS analysis was conducted.
3-4 Quantification and Calculation
The amount of 1′-hydroxybufuralol produced was quantified by LC-MSMS, and this amount was used as a metabolic activity of CYP2D6 for each well. The remaining activity of each sample was determined by comparison with the activity obtained from DMSO as a test drug. An IC50 value of CYP2D6 inhibition was determined from the test drug concentration and remaining activity. The IC50 value was calculated by linear interpolation between two points that span the remaining activity 50%. A larger value of IC50 of CYP2D6 inhibition means weaker CYP2D6 inhibition.

Series [3] concerns the target T2, human serotonin transporter (h-SERT) (Homo sapiens, UniProt P31645).
T2 construct: expressed in transfected cells; host or cells: CHO cells (h-SERT/CHO), Geneticin-selected
In words: Screening test using [3H]citalopram binding for evaluating human serotonin reuptake inhibitory effect. The note with it: h-SERT/CHO membrane preparation, [3H]citalopram approximately 2 nM, room temperature 60 minutes; read-out: Test Example 1: h-SERT binding inhibition constant (Ki). An excerpt:
CHO cells containing a human serotonin transporter (h-SERT) expressed therein (h-SERT/CHO) were used in the experiment.
1-2 Receptor Binding Experiment
A smaller value of the h-SERT binding inhibition constant Ki means a higher human serotonin reuptake inhibitory effect.

Series [4] deals with T3, human serotonin 1A receptor (h-5-HT1A) (Homo sapiens, UniProt P08908).
T3 sequence (P08908 1-422): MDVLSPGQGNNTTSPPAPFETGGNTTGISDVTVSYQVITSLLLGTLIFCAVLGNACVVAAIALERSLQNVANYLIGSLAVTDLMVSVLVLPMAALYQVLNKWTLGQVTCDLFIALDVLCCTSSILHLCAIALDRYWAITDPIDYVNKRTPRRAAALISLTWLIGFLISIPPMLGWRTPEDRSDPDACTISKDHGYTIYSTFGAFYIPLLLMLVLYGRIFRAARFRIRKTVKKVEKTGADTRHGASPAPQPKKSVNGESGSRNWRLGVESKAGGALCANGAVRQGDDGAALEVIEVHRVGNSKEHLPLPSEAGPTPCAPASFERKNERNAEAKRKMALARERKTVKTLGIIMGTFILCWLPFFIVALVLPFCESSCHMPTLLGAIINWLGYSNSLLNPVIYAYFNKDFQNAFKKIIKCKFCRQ
Method: The cells were cultured in F12 containing 10% FCS, 500 μg/ml Geneticin, and 100 U/ml penicillin-100 μg/ml streptomycin (all manufactured by Sigma-Aldrich Corp.) in a 5% CO2 incubator. […] Specifically, the cells were dissociated/collected using 50 mM Tris-HCl (pH=7.4). The resulting cells were homogenized using a Teflon (registered trademark) homogenizer and then centrifuged (48,000×g, 20 min, 4° C.). The pellet was resuspended in an appropriate amount of 50 mM Tris-HCl (pH=7.4) and stored at −80° C. until use. The amount of the protein in the membrane preparation was quantified using Dye Reagent Concentrate (manufactured by Bio-Rad Laboratories, Inc.) with bovine serum albumin (manufactured by Sigma-Aldrich Corp.) as a standard.
The reaction solution was reacted at room temperature for 30 minutes and then rapidly filtered by suction at a low pressure through glass fiber filter paper. The glass fiber filter paper was washed twice with 250 μl of 50 mM Tris-HCl (pH=7.4) and then added to a counting vial containing 4 ml of ACS-II (manufactured by Amersham Biosciences). Receptor binding radioactivity remaining on the filter paper was measured using a liquid scintillation counter.

Series [5] deals with T2, human serotonin transporter (h-SERT). In words: Serotonin transporter function inhibition test using [3H]5-HT. The format is cell-based. The settings on record: h-SERT/CHO cells, [3H]5-HT uptake approximately 10 nM, 37° C. 10 minutes; read-out: Test Example 5: h-SERT Function Inhibition Constant (Ki). On the procedure: 1-1 Cells Used and Preparation of Cell Suspension
CHO cells containing a human serotonin transporter (h-SERT) expressed therein (h-SERT/CHO) were used in the experiment. […] The collected cells were suspended in a buffer solution containing 0.1 mM CaCl2 and 1 mM MgCl2 in PBS (hereinafter, referred to as PBSCM) and stored in ice until use.
Specifically, 149 μl of the cell suspension (10×10^4 cells/well) and 1 μl of a solution of a test drug dissolved in dimethyl sulfoxide were preincubated at 37° C. for 10 minutes.

T2 sequence (P31645 whole entry): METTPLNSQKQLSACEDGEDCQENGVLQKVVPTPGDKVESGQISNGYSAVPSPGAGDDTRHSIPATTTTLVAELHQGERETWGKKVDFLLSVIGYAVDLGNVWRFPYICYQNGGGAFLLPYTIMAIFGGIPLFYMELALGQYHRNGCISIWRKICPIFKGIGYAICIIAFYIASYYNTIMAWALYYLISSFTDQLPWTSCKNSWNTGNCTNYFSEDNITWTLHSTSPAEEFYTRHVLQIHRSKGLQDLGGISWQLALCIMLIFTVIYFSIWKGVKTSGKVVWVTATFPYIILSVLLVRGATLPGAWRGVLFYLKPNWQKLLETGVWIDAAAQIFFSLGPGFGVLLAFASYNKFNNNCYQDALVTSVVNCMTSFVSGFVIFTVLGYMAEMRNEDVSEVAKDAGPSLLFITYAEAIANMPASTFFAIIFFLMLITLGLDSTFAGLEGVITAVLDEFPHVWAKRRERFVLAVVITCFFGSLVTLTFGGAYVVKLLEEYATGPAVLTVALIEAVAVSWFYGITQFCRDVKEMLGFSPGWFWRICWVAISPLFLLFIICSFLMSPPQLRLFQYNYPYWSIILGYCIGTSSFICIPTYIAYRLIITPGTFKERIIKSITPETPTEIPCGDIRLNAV
T1 sequence (P10635 whole entry): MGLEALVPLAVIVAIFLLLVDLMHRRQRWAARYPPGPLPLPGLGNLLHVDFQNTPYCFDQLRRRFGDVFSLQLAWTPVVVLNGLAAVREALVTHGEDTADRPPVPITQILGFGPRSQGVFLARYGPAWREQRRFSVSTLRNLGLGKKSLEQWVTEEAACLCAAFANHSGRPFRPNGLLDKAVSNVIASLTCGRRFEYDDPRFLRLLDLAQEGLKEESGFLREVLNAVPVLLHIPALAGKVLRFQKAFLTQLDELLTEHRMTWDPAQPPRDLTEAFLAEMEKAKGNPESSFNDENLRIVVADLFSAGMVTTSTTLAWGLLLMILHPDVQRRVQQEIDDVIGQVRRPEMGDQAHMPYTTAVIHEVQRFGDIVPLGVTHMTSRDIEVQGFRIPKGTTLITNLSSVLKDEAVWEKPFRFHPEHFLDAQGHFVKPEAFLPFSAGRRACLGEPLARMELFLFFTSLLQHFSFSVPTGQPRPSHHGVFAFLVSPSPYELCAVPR

As to `COCCOc1cc(CC2CCN(CCc3ccc4c(c3)C(=O)CCO4)CC2)ccc1Br.Cl` [Example 4, 6-(2-{4-[4-Bromo-3-(2-methoxyethoxy)benzyl]piperidin-1-yl}ethyl)-2,3-dihydro-4H-chromen-4-one hydrochloride], in series [1], the “Test Example 4: Rate of CYP2D6 Contribution” value (“Test Example 4: Rate” below) amounted to 0%. In addition, the IC50 in series [2] worked out at 22900 nM.
Turning to `COCCOc1cc(Cl)cc(CC2CCN(CCc3ccc4c(c3)C(=O)CCO4)CC2)c1` [Example 20, 6-(2-{4-[3-Chloro-5-(2-methoxyethoxy)benzyl]piperidin-1-yl}ethyl)-2,3-dihydro-4H-chromen-4-one], the “Test Example 4: Rate” value in series [1] worked out at 24%. Besides, the inhibitory constant (Ki) in series [3] amounted to 2.4 nM; in series [4], 57 nM. Moreover, the half-maximal inhibitory concentration (IC50) in series [2] is 23400 nM.
Regarding `COCCOc1cc(Br)cc(CC2CCN(CCc3ccc4c(c3)C(=O)CC4)CC2)c1` [Example 15, 6-(2-{4-[3-Bromo-5-(2-methoxyethoxy)benzyl]piperidin-1-yl}ethyl)-2,3-dihydro-1H-inden-1-one], the “Test Example 4: Rate” value in series [1] is 11%. Also, the values for the Ki in series [3] and in series [4] were 3.2 nM and 35 nM, respectively. Further, in series [2], the 50% inhibitory concentration (IC50) was 36100 nM.
For `O=C1CCCOc2ccc(CCN3CCC(Cc4ccc(Br)c(OCCO)c4)CC3)cc21` [Example 14, 7-(2-{4-[4-Bromo-3-(2-hydroxyethoxy)benzyl]piperidin-1-yl}ethyl)-3,4-dihydro-1-benzoxepin-5(2H)-one], in series [1], the “Rate of CYP2D6 Contribution indeterminable due to high stability for human microsomal metabolism” value was “—*^)”. In addition, the Ki in series [3] was 8.5 nM; in series [4], 55 nM. In addition, in series [2], the half-inhibitory concentration (IC50) was determined as 34800 nM.
Take `O=C1CCCc2ccc(CCN3CCC(Cc4ccc(Br)c(OCCO)c4)CC3)cc21` [Example 12, 7-(2-{4-[4-Bromo-3-(2-hydroxyethoxy)benzyl]piperidin-1-yl}ethyl)-3,4-dihydronaphthalen-1(2H)-one]: the “Test Example 4: Rate” value in series [1] was determined as 17%. Also, the figures for the inhibitory constant (Ki) in series [3] and in series [4] were 9.2 nM and 23 nM, respectively. Besides, in series [2], the IC50 was 27900 nM.
With `O=C1CCc2ccc(CCN3CCC(Cc4ccc(Br)c(OCCO)c4)CC3)cc21` [Example 11, 6-(2-{4-[4-Bromo-3-(2-hydroxyethoxy)benzyl]piperidin-1-yl}ethyl)-2,3-dihydro-1H-inden-1-one], in series [1], the “Rate of CYP2D6 Contribution indeterminable due to high stability for human microsomal metabolism” value is “—*^)”. Moreover, the Ki in series [3] turned out to be 6.4 nM; in series [4], 3.8 nM. For the same molecule, the half-maximal inhibitory concentration (IC50) in series [2] stood at 24600 nM.
`COCCOc1cc(Br)cc(CC2CCN(CCc3ccc4c(c3)C(=O)CCO4)CC2)c1` [Example 17]: the inhibitory constant (Ki) in series [5] came out at 18 nM; in series [3], 4 nM. Further, the “Test Example 4: Rate” value in series [1] was 14%. Besides, the IC50 in series [2] came to 24600 nM.
Taken in the same sequence, the figures for `COCCOc1cc(CC2CCN(CCc3ccc4c(c3)C(=O)CCO4)CC2)ccc1C` [Example 10] were 44 nM, 4.2 nM, 49% and 21500 nM.
On to `COCCOc1cc(CC2CCN(CCc3ccc4c(c3)C(=O)CCC4)CC2)ccc1C` [Example 9, 7-(2-{4-[3-(2-Methoxyethoxy)-4-methylbenzyl]piperidin-1-yl}ethyl)-3,4-dihydronaphthalen-1(2H)-one], for which, in series [1], the “Test Example 4: Rate” value is 7.8%. Further, the Ki in series [3] is 3.1 nM; in series [4], 13 nM. Also, the 50% inhibitory concentration (IC50) in series [2] was found to be 33700 nM.
On to `COCCOc1cc(CC2CCN(CCc3ccc4c(c3)C(=O)CCO4)CC2)ccc1Cl` [Example 7, 6-(2-{4-[4-Chloro-3-(2-methoxyethoxy)benzyl]piperidin-1-yl}ethyl)-2,3-dihydro-4H-chromen-4-one], for which the figures for the Ki in series [5] and in series [3] were 16 nM and 2.7 nM, respectively. Moreover, the “Test Example 4: Rate” value in series [1] is 54%. Also, the concentration for half-maximal inhibition (IC50) in series [2] was 17500 nM.
`COCCOc1cc(Br)cc(CC2CCN(CCc3ccc4c(c3)C(=O)CCCO4)CC2)c1` [Example 18, 7-(2-{4-[3-Bromo-5-(2-methoxyethoxy)benzyl]piperidin-1-yl}ethyl)-3,4-dihydro-1-benzoxepin-5(2H)-one]: in series [1], the “Test Example 4: Rate” value is 0%. Further, the inhibition constant (Ki) in series [3] was 6.2 nM; in series [4] it was 295 nM. Further, the concentration for half-maximal inhibition (IC50) in series [2] came out at 27500 nM.
On the same counts, the results for `COCCOc1cc(CC2CCN(CCc3ccc4c(c3)C(=O)CC4)CC2)ccc1C` [Example 8, 6-(2-{4-[3-(2-Methoxyethoxy)-4-methylbenzyl]piperidin-1-yl}ethyl)-2,3-dihydro-1H-inden-1-one] are 9.6%, 2.8 nM, 3.7 nM and 31000 nM.
Take `COCCOc1cc(CC2CCN(CCc3ccc4c(c3)C(=O)CCC4)CC2)ccc1Br` [Example 2, 7-(2-{4-[4-Bromo-3-(2-methoxyethoxy)benzyl]piperidin-1-yl}ethyl)-3,4-dihydronaphthalen-1(2H)-one]: the Ki in series [5] was found to be 1.6 nM; in series [3], 0.7 nM. In addition, the “Test Example 4: Rate” value in series [1] is reported as 12%. For the same molecule, in series [2], the concentration for half-maximal inhibition (IC50) amounted to 12800 nM.
On to `COCCOc1cc(Br)cc(CC2CCN(CCc3ccc4c(c3)C(=O)CCC4)CC2)c1` [Example 16, 7-(2-{4-[3-Bromo-5-(2-methoxyethoxy)benzyl]piperidin-1-yl}ethyl)-3,4-dihydronaphthalen-1(2H)-one], for which, in series [1], the “Test Example 4: Rate” value stood at 9.2%. The inhibitory constant (Ki) in series [3] turned out to be 2.9 nM; in series [4] it was 27 nM. Further, in series [2], the IC50 is 26300 nM.
Taken in the same sequence, the figures for `COCCOc1cc(Cl)cc(CC2CCN(CCc3ccc4c(c3)C(=O)CC4)CC2)c1` [Example 19, 6-(2-{4-[3-Chloro-5-(2-methoxyethoxy)benzyl]piperidin-1-yl}ethyl)-2,3-dihydro-1H-inden-1-one] were 16%, 3 nM, 29 nM and 20400 nM.

Broadly, the IC50 is the midpoint of a concentration-inhibition curve. As usually defined, the Ki is a measure of affinity in units of concentration, obtained from inhibition or displacement.
